Measured values: ChEMBL document CHEMBL1122600, “Receptor binding sites of hypoglycemic sulfonylureas and related [(acylamino)alkyl]benzoic acids” (1984)

System: Rattus norvegicus
Assay: Effect of the compound (50 mg/kg, po) on rat blood sugar level which was given an oral glucose load (1 g/kg) 1 hr after the administration of compound
Assay type: functional

| Compound | Change in rat blood sugar |
| --- | --- |
| COc1ccc(Cl)cc1C(=O)NCCc1ccc(C(C)O)cc1 (stereo not given) | -11% |
| COc1ccc(Cl)cc1C(=O)NCCc1ccccc1 | -7% |
| COc1ccc(Cl)cc1C(=O)NCCc1ccc(Cl)cc1 | 0% |
| COc1ccc(Cl)cc1C(=O)NCCc1ccc(O)cc1 | 2% |
| COc1ccc(Cl)cc1C(=O)NCCc1ccc(C(C)=O)cc1 | -11% |
| COc1ccc(Cl)cc1C(=O)NCCc1ccc(N)cc1 | 7% |
| COc1ccc(Cl)cc1C(=O)NCCCCCC(=O)O | 9% |
| COc1ccc(Cl)cc1C(=O)NCCc1ccc(OCC(=O)O)cc1 | -9% |
| CCc1ccc(CCNC(=O)c2cc(Cl)ccc2OC)cc1 | -4% |
| C=Cc1ccc(CCNC(=O)c2cc(Cl)ccc2OC)cc1 | -6% |
| COc1ccc(Cl)cc1C(=O)NCCc1ccc([N+](=O)[O-])cc1 | 2% |
| COc1ccc(Cl)cc1C(=O)NCCc1ccc(C(F)(F)F)cc1 | -3% |
| COc1ccc(Cl)cc1C(=O)NCCc1ccc(C)cc1 | -55% |
| COc1ccc(Cl)cc1C(=O)NCCc1ccc(S(=O)(=O)NC(=O)NC2CCCCC2)cc1 [GLYBURIDE] | -44% |
| COc1ccc(Cl)cc1C(=O)NCCc1ccc(C(=O)O)cc1 [MEGLITINIDE] | -63% |
